Measured values reported in patent publication EP3722295A1, “ANTI-VIRAL AND ANTI-CANCER ACTIVITY OF PYRIDO[2,3-D]PYRIMIDINE AND OXADIAZIOLE COMPOUNDS” (priority 2019, dated 2020).
Read-outs that look alike come from different tables or passages of the source.

Legend:
[1] = tested on: WSN-PB2-Nanoluc virus; assay type: cell-based, influenza A/WSN/33
[2] = tested on: viral M1 mRNAs; assay: M1 mRNA splicing, RT-qPCR; assay type: cell-based, influenza A/WSN/33; settings: WSN-infected A549 cells, 60 µM
Experimental: (§1) Total RNA and poly(A)+ RNAs were extracted subsequently using the RNeasy Mini Kit (Qiagen) and Oligotex mRNA Mini kit (Qiagen), following the manufacturer's protocol. Reverse transcription (RT) was performed on 5-10 ng of total mRNA (or poly(A)+ RNA equivalent) using the Maxima First Strand cDNA Synthesis Kit (Thermo Scientific). Quantitative real-time PCR was performed on 2 µl of a 1/10 dilution of the RT reaction using the Luminaris Color Probe qPCR Master Mix (Thermo Scientific) and a Light Cycler 480 (Roche). The levels of NS1/NS2 and M1/M2 mRNAs were determined and normalized with respect to GAPDH mRNA levels using the protocol described in (23). The levels of PB2/PB2-S1 mRNAs were determined by semi-quantitative RT-PCR as described in (35).

[3] = tested on: PB2 mRNA; assay: PB2 mRNA splicing, semi-quantitative RT-PCR; assay type: cell-based, influenza A/WSN/33; settings: WSN-infected A549 cells, 60 µM
Experimental: as §1

[4] = molecular target: RED-SMU1 complex (Homo sapiens, UniProt Q2TAY7); assay: In cellulo split luciferase-based RED-SMU1 interaction assay; assay type: cell-based; settings: for inhibition at 60 µM: A549 cells, relative to DMSO
[5] = tested on: RSV-Firefly virus; assay: RSV-Firefly replication assay (specificity control); assay type: cell-based, human Respiratory Syncytial Virus
[6] = tested on: viral NS1 mRNA; assay: NS1 mRNA splicing, quantitative real-time PCR; assay type: cell-based, influenza A/WSN/33; settings: WSN-infected A549 cells, 60 µM, 6 h incubation
Experimental: as §1

[7] = molecular target: T1, FOS:JUN (Homo sapiens, UniProt P01100+P05412); assay: FOS:JUN split luciferase interaction assay (specificity control); assay type: cell-based
T1 construct: expressed in transfected cells

[8] = molecular target: T2, endogenous RED-SMU1 complex (Homo sapiens, UniProt Q2TAY7); assay: Western blot of steady-state levels of endogenous RED and SMU1 proteins; assay type: cell-based
T2 construct: Effect on the steady-state levels of the endogenous RED and SMU1 proteins; endogenous in cells; host or cells: A549

[9] = tested on: A549 cells; assay: Cell viability assay (CellTiter-Glo, ATP levels) and observation of cell monolayers; assay type: cell-based, human
Experimental: Cell viability was assessed using the CellTiter-Glo® One Solution Assay kit (Promega) according to the manufacturer's instruction.

[10] = tested on: WSN virus; assay: Production of infectious particles in A549 cells, plaque assay; assay type: cell-based, influenza A/WSN/33; settings: 60 µM
[11] = physchem

T1 sequence (P01100 whole entry): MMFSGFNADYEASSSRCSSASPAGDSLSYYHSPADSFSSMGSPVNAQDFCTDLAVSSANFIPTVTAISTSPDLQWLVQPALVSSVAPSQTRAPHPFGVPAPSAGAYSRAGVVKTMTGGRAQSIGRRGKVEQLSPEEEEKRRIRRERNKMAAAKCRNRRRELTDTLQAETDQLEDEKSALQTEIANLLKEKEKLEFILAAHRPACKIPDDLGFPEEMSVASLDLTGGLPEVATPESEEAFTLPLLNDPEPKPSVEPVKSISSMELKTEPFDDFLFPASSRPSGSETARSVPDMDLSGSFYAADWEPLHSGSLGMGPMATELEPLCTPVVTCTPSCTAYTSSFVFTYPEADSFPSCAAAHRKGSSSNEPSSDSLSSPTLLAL
T1 sequence (P05412 whole entry): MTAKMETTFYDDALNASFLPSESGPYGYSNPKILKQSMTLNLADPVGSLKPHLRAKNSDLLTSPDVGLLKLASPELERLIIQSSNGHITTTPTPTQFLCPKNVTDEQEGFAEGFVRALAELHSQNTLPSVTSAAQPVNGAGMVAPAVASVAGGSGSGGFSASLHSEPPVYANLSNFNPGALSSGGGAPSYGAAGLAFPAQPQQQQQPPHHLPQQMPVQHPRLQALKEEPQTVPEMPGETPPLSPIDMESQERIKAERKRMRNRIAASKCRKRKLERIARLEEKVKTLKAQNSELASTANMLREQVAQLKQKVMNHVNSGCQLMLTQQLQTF

SMILES	inhibition of viral growth [1]	splicing of the viral M1 mRNAs [2]	PB2 mRNA splicing [3]	inhibition at 60 µM [4]	RSV-Firefly signals ([5]; A549 cells, 7.5 - 60 µM, 24 hpi)	reduction of NS2 to NS1 mRNA ratio [6]	effect in FOS:JUN interaction assay ([7]; specificity control, same concentrations as RED-SMU1 assay)	Expression levels of RED and SMU1 proteins [8]	growth of the tumoral cell line A549 [9]	cytotoxicity / cytostatic effect ([9]; A549 cells, 15, 30 and 60 µM, 24 and 48 hours of incubation)	reduction of production of WSN infectious particles ([10]; 24 hpi)	reduction of production of WSN infectious particles ([10]; 48 hpi)	reduction of production of WSN infectious particles ([10]; 72 hpi)	logP [11]	reduction of WSN-Nanoluc signals [1]	EC50 [4]	RSV-Firefly signals [5]	effect in FOS:JUN interaction assay [7]
CCN(CC)CCCCNc1ncc2cc(-c3cc(OC)cc(OC)c3)c(NC(=O)NC(C)(C)C)nc2n1 [PD173074, reference compound]	did not inhibit viral growth as efficiently as LSP61	–	–	–	–	–	–	–	–	–	–	–	–	–	–	–	–	–
COc1cc(OC)cc(-c2cc3cnc(NCc4cn(C5CCN(Cc6ccccc6)CC5)nn4)nc3nc2NC(=O)NC(C)(C)C)c1 [LSP641]	–	did not inhibit	not affected	40%	only moderate reductions	30%	none of the two compounds showed any significant effect	–	–	–	–	–	–	–	–	–	–	–
C#CCCCNc1ncc2cc(-c3cc(OC)cc(OC)c3)c(NC(=O)NC(C)(C)C)nc2n1 [LSP61]	–	did not inhibit	not affected	90%	–	50%	–	decreased	inhibits the growth	no cytotoxicity but some cytostatic effect	about 1000 fold	~100 fold	~10 fold	4.8	25 fold	~15 µM	only moderate reductions	none of the two compounds showed any significant effect
